Assays:
[1] = Stability of DAC, 2dC, and 5mC (LC-MS/MS); assay type: physicochemical; conditions: for Digest Buffers Stability (−70° C.) (35 Days) (%): digest buffer; for Stock Stability (27 Days) (%): Stock solution in water 1 mg/mL, −20° C. printed for DAC only
Procedure: (§1) Standards and quality control (QCs) samples were prepared by adding known concentrations of analytes into blank digest matrix (all solvents used during the DNA digest except for the enzymes). All digested DNA samples, standards and QCs were prepared for analysis by adding 20 μL internal standard (5AC-^15N4, 2dC-^13C^15N2 and 5mC-d3 in water) to 100 μL of sample and vortex-mix briefly. The internal standard in the range of 5 μL, 10 μL, or 15 μL to 20 μL, 25 μL, 30 μL, or 35 μL could be added to a sample. The sample could be in the range of 85 μL, 90 μL, or 95 μL to 100 μL, 105 μL, 110 μL, or 110 μL. The samples were injected onto a LC-MS system containing a Waters Acquity UPLC (Milford, Mass.) interfaced with an AB Sciex 5500 triple quadruple mass spectrometer (Foster City, Calif.). Chromatographic separation was achieved using Thermo Hypercarb porous graphite analytical column (100×2.1 mm, 5 μm, Waltham, Mass.) running isocratic with 10 mM ammonium acetate-acetonitrile-formic acid (70:30:0.1, v/v) with a flow rate of […]. The mass spectrometer was run in positive electrospray ionization mode with follow MRM transitions: DAC: 228.9→113.0, 2dC: 228.0→112.0, 5mC: 242.0→126.0, 5AC-^15N4 (internal standard): 249.0→117.0, 2dC-^13C^15N2 (internal standard) 230.8→115.0 and 5mC-d3 (internal standard) 245.8→129.0. The calibration range was 2-400 ng/mL for DAC, 5-1,000 ng/mL for 5mC, and 50-10,000 ng/mL for 2dC. All analytes were quantified using quadratic regression with 1/x^2 weighing.
A LC-MS/MS method was developed and validated to determine DAC, 2dC, and 5mC concentrations in DNA digest matrix (FIGS. 1-3). No major interferences were observed from blank matrix (FIGS. 1 and 2). Samples can be stored as the single dephosphorylated nucleotides for up to 35 days. The method has been applied in vitro to untreated (FIG. 4) and DAC treated cells (FIG. 5).

whole bone marrow cells = assay: DAC and 5mC content in genomic DNA of bone marrow cells from mice treated with DAC; assay type: in vivo; conditions: DAC 1, 2 or 5 mg/kg intraperitoneal, 10 doses (FIG. 7)
Procedure: (§2) Genomic DNA was suspended in 50 μL of HPLC grade water, and digested with 4 Units of Nuclease P1 (Sigma Aldrich) at 65° C. for 10 minutes in a digestion buffer containing 0.04 mM DFAM, 3.25 mM ammonium acetate pH 5.0, 0.5 mM zinc chloride in a final volume of 100 μL. 20 μL of 100 mM Trizma base, pH 8.5 was added and this reaction was treated with 4 Units of Alkaline Phosphatase at 37° C. for 1 hour. Following incubation, 20 μL of 300 mM ammonium acetate, pH 5.0 and 6 μL of 0.25 mM DFAM/50 mM ethylenediaminetetraacetic acid was added to stop digestion.
(§3) Standards and quality control (QCs) samples were prepared by adding known concentrations of analytes into blank digest matrix (all solvents used during the DNA digest except for the enzymes). All digested DNA samples, standards and QCs were prepared for analysis by adding 20 μL internal standard (5AC-^15N4, 2dC-^13C^15N2 and 5mC-d3 in water) to 100 μL of sample and vortex-mix briefly. The internal standard in the range of 5 μL, 10 μL, or 15 μL to 20 μL, 25 μL, 30 μL, or 35 μL could be added to a sample. […] All analytes were quantified using quadratic regression with 1/x^2 weighing. […]
(§4) DAC (1, 2 or 5 mg/kg) (Sigma-Aldrich) or vehicle was administered via daily intraperitoneal injection. […] DAC, 2dC, and 5mC were measured using our LC-MS/MS analytical approach.

[2] = due to deamination to 5-aza-2′-deoxyuridine; cited from earlier work
[3] = test system: DU145 human prostate cancer cells; assay: DAC incorporation into genomic DNA of DU145 cells (LC-MS/MS); assay type: cell-based
Procedure: as §2, §1
DU145 prostate cancer cells were cultured in RPMI-1640, supplemented with 5% fetal bovine serum (Invitrogen). DAC was dissolved in DMSO and added to the culture at varying concentrations. The same volume of DMSO was added as a control. Cells were allowed to grow for 48 hr. An independent experiment was performed in three replicates. Following cell harvest, genomic DNA isolation, digestion to single dephosphorylated nucleotides according to our described protocols, DAC and 2dC content were determined using our LC-MS/MS analytical approach.

colon tissue = assay: DAC and 5mC content in genomic DNA of colon cells from mice treated with DAC; assay type: in vivo; conditions: DAC 1, 2 or 5 mg/kg intraperitoneal, 10 doses (FIG. 7)
Procedure: as §2, §3, §4

[4] = DU145 cells treated with 500 nM DAC (FIG. 5)

SMILES	Reinjection Stability (5 Days) (5° C.) (%) ([1]; High QC)	Digest Buffers Stability (−70° C.) (35 Days) (%) ([1]; High QC)	Reinjection Stability (5 Days) (5° C.) (%) ([1]; Low QC)	Digest Buffers Stability (−70° C.) (35 Days) (%) ([1]; Low QC)	Stock Stability (27 Days) (%) [1] [%]	DAC incorporation into genomic DNA (DAC per thousand 2dC) (whole bone marrow cells)	plasma half-life [2] [min]	concentration of 2dC in digested genomic DNA [3, 4] [ng/mL]	concentration of 5mC in digested genomic DNA [3, 4] [ng/mL]	concentration of DAC in digested genomic DNA [3, 4] [ng/mL]	amount of DAC per thousand 2dC versus initial treatment dose ([3]; increasing doses of DAC, 48 hours, three replicates (FIG. 6))	5mC content (per thousand 2dC) relative to DAC incorporation (colon tissue)	DAC incorporation into genomic DNA (DAC per thousand 2dC) (colon tissue)
Nc1ccn([C@H]2C[C@H](O)[C@@H](CO)O2)c(=O)n1 [2dC, 2′-deoxycytidine]	106.0	99	108.0	107.2	98.7	–	–	–	–	–	–	–	–
Nc1ncn([C@H]2C[C@H](O)[C@@H](CO)O2)c(=O)n1 [DAC, 5-aza-2′-deoxycytidine]	92.5	103.2	88.6	101.8	94.8	dose responsive increase in incorporation	15 to 25	1250	27.4	2.8	strong linear correlation	inversely correlated with DAC incorporation	dose responsive increase in incorporation
